# Results published in patent US12617783B2, “Heterocyclic GLP-1R agonists” (BIOMEA FUSION, INC., priority 2024, dated 2026).
# Molecular target: T1, human GLP-1R (Homo sapiens, UniProt P43220)
# T1 construct: host or cells: HEK293
# Assay: GLP-1R cAMP assay (Example B1a, HTRF, 30 min at room temperature)
# Format: cell-based
# Conditions: cAMP accumulation in HEK293 expressing human GLP-1R, no BETP, 30 min room temperature (Method B1a, compounds ID 1-609), Table 1; read-out: EC50
# In short: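 Competitive HTRF read-out of cAMP after 30 min room-temperature stimulation, BETP absent, of human GLP-1R-HEK293 cells (1,000/well) in HEPES buffer with 500 μM IBMX and 0.1% BSA. Activation normalised to GLP-1(7-37) positive control. EC50 from 4-parameter non-linear regression.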
# T1 sequence (P43220 24-463): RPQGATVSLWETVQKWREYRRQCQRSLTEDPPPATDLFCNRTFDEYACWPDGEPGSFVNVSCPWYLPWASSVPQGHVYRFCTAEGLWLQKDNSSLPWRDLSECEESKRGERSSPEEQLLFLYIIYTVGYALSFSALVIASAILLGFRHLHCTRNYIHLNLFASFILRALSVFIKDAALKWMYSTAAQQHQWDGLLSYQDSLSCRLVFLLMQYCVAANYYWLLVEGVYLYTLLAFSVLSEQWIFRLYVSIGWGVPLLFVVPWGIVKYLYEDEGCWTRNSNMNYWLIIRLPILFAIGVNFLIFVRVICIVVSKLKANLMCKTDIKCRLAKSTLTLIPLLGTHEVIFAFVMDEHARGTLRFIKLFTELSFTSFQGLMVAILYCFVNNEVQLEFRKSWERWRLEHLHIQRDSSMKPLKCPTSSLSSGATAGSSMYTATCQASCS
row,EC50 [nM],SMILES
1,284,"Cc1cc(-n2nc3c(c2-n2ccn(-c4ccc5c(cnn5C)c4F)c2=O)CN(Cc2cc4cc([C@H]5CCOC(C)(C)C5)ccc4n2[C@@]2(c4noc(=O)[nH]4)C[C@@H]2C)CCC3)cc(C)c1F [Compound 432, 3-((1S,2S)-1-(5-((S)-2,2-dimethyltetrahydro-2H-pyran-4-yl)-2-((3-(3-(4-fluoro-1-methyl-1H-indazol-5-yl)-2-oxo-2,3-dihydro-1H-imidazol-1-yl)-2-(4-fluoro-3,5-dimethylphenyl)-2,6,7,8-tetrahydropyrazolo[4,3-c]azepin-5 (4H)-yl)methyl)-1H-indol-1-yl)-2-methylcyclopropyl)-1,2,4-oxadiazol-5(4H)-one]"
2,> 10000,"Cc1cc(-n2nc3c(c2-n2ccn(-c4ccc5c(cnn5C)c4F)c2=O)[C@@H]2CC[C@H](C3)N2C(=O)c2cc3nc([C@@H]4CCOC(C)(C)C4)sc3n2[C@@]2(c3noc(=O)[nH]3)C[C@@H]2C)cc(C)c1F [Compound 207, 3-[(1S,2S)-1-[2-[(4R)-2,2-dimethyltetrahydropyran-4-yl]-5-[(1S,8R)-4-(4-fluoro-3,5-dimethyl-phenyl)-3-[3-(4-fluoro-1-methyl-indazol-5-yl)-2-oxo-imidazol-1-yl]-4,5,11-triazatricyclo[6.2.1.02,6]undeca-2,5-diene-11-carbonyl]pyrrolo[3,2-d]thiazol-4-yl]-2-methyl-cyclopropyl]-4H-1,2,4-oxadiazol-5-one]"
3,1620,"Cc1cc(-n2nc3c(c2-n2ccn(-c4ccc5c(cnn5C)c4F)c2=O)[C@@H]2CC[C@H](C3)N2C(=O)c2cc3cc([C@H]4CCOC5(CC5)C4)ccc3n2[C@@]2(c3noc(=O)[nH]3)C[C@H]2C)cc(C)c1F [Compound 542, 3-((1S,2R)-1-(2-((4S,7R)-3-(3-(4-fluoro-1-methyl-1H-indazol-5-yl)-2-oxo-2,3-dihydro-1H-imidazol-1-yl)-2-(4-fluoro-3,5-dimethylphenyl)-2,4,5,6,7,8-hexahydro-4,7-epiminocyclohepta [c]pyrazole-9-carbonyl)-5-((S)-4-oxaspiro[2.5]octan-7-yl)-1H-indol-1-yl)-2-methylcyclopropyl)-1,2,4-oxadiazol-5 (4H)-one]"
4,2120,"Cc1cc(-n2nc3c(c2-n2ccn(-c4ccc5c(cnn5C)c4F)c2=O)[C@@H]2CC[C@H](C3)N2C(=O)c2cc3cc([C@H]4COC(C)(C)C4)ccc3n2[C@@]2(c3noc(=O)[nH]3)C[C@@H]2C)cc(C)c1F [Compound 423, 3-[(1S,2S)-1-[5-[(3S)-5,5-dimethyltetrahydrofuran-3-yl]-2-[(1S,8R)-4-(4-fluoro-3,5-dimethyl-phenyl)-3-[3-(4-fluoro-1-methyl-indazol-5-yl)-2-oxo-imidazol-1-yl]-4,5,11-triazatricyclo[6.2.1.02,6]undeca-2,5-diene-11-carbonyl]indol-1-yl]-2-methyl-cyclopropyl]-4H-1,2,4-oxadiazol-5-one]"
5,> 10000,"Cc1cc(-n2nc3c(c2-n2ccn(-c4ccc5c(cnn5C)c4F)c2=O)[C@@H]2CC[C@H](C3)N2C(=O)c2cc3ccc(C4CCOC(C)(C)C4)cc3nc2C2(c3noc(=O)[nH]3)CC2)cc(C)c1F (stereo partly drawn) [Compound 126, 3-[1-[7-(2,2-dimethyltetrahydropyran-4-yl)-3-[(1S,8R)-4-(4-fluoro-3,5-dimethyl-phenyl)-3-[3-(4-fluoro-1-methyl-indazol-5-yl)-2-oxo-imidazol-1-yl]-4,5,11-triazatricyclo[6.2.1.02,6]undeca-2,5-diene-11-carbonyl]-2-quinolyl]cyclopropyl]-4H-1,2,4-oxadiazol-5-one]"
6,≥ 10000,"Cc1cc(-n2nc3c(c2-n2ccn(-c4ccc(CS(C)(=O)=O)cc4)c2=O)[C@@H]2CCC[C@H](C3)N2C(=O)c2cc3cc([C@H]4CCOC(C)(C)C4)ccc3n2[C@@]2(c3noc(=O)[nH]3)C[C@@H]2C)cc(C)c1F [Compound 546, 3-[(1S,2S)-1-[5-[(4S)-2,2-dimethyltetrahydropyran-4-yl]-2-[(1S,8R)-4-(4-fluoro-3,5-dimethyl-phenyl)-3-[3-[4-(methylsulfonylmethyl)phenyl]-2-oxo-imidazol-1-yl]-4,5,12-triazatricyclo[6.3.1.02,6]dodeca-2,5-diene-12-carbonyl]indol-1-yl]-2-methyl-cyclopropyl]-4H-1,2,4-oxadiazol-5-one]"
7,> 10000,"Cc1cc(-n2nc3c(c2-c2ncn(-c4ccc5c(cnn5C)c4F)c2C)[C@H](C)N(C(=O)c2cc4cc(N5C6CCC5COC6)ccc4n2C2(c4noc(=O)[nH]4)CC2)CC3)cc(C)c1F [Compound 107, 3-[1-[2-[(4S)-2-(4-fluoro-3,5-dimethyl-phenyl)-3-[1-(4-fluoro-1-methyl-indazol-5-yl)-5-methyl-imidazol-4-yl]-4-methyl-6,7-dihydro-4H-pyrazolo[4,3-c]pyridine-5-carbonyl]-5-(3-oxa-8-azabicyclo[3.2.1]octan-8-yl)indol-1-yl]cyclopropyl]-4H-1,2,4-oxadiazol-5-one]"
8,58.4,"Cc1cc(-n2nc3c(c2-n2ccn(-c4ccc5c(cnn5C)c4F)c2=O)[C@@H]2CC[C@H](C3)N2S(=O)(=O)c2cc3cc([C@H]4CCOC(C)(C)C4)ccc3n2[C@@]2(c3noc(=O)[nH]3)C[C@@H]2C)cc(C)c1F [Compound 525, 3-[(1S,2S)-1-[5-[(4S)-2,2-dimethyltetrahydropyran-4-yl]-2-[[(1S,8R)-4-(4-fluoro-3,5-dimethyl-phenyl)-3-[3-(4-fluoro-1-methyl-indazol-5-yl)-2-oxo-imidazol-1-yl]-4,5,11-triazatricyclo[6.2.1.02,6]undeca-2,5-dien-11-yl]sulfonyl]indol-1-yl]-2-methyl-cyclopropyl]-4H-1,2,4-oxadiazol-5-one]"
9,975,"Cc1cc(-n2nc3c(c2-n2ccn(-c4ccc5c(cnn5C)c4F)c2=O)[C@@H]2CCC[C@H](C3)N2S(=O)(=O)c2cc3cc([C@H]4CCOC(C)(C)C4)ccc3n2C2(c3noc(=O)[nH]3)C[C@@H]2C)cc(C)c1F (stereo partly drawn) [Compound 527, 3-[(2S)-1-[5-[(4S)-2,2-dimethyltetrahydropyran-4-yl]-2-[[(1S,8R)-4-(4-fluoro-3,5-dimethyl-phenyl)-3-[3-(4-fluoro-1-methyl-indazol-5-yl)-2-oxo-imidazol-1-yl]-4,5,12-triazatricyclo[6.3.1.02,6]dodeca-2,5-dien-12-yl]sulfonyl]indol-1-yl]-2-methyl-cyclopropyl]-4H-1,2,4-oxadiazol-5-one]"

row,SMILES,EC50 [nM]
1,"Cc1cc(-n2nc3c(c2-n2ccn(-c4ccc5c(cnn5C)c4F)c2=O)[C@H]2CCC[C@@H](C3)N2C(=O)c2cc3cc([C@H]4CCOC(C)(C)C4)ccc3n2[C@@]2(c3noc(=O)[nH]3)C[C@@H]2C)cc(C)c1F [Compound 430, 3-((1S,2S)-1-(5-((S)-2,2-dimethyltetrahydro-2H-pyran-4-yl)-2-((4R,8S)-3-(3-(4-fluoro-1-methyl-1H-indazol-5-yl)-2-oxo-2,3-dihydro-1H-imidazol-1-yl)-2-(4-fluoro-3,5-dimethylphenyl)-4,5,6,7,8,9-hexahydro-2H-4,8-epiminocycloocta [c]pyrazole-10-carbonyl)-1H-indol-1-yl)-2-methylcyclopropyl)-1,2,4-oxadiazol-5 (4H)-one]",≥ 10000

# Same assay, conditions: text to Table 1d, bridge atoms configured out of the plane or toward the reader
row,SMILES,potency
1,"Cc1cc(-n2nc3c(c2-n2ccn(-c4ccc5c(cnn5C)c4F)c2=O)[C@H]2CCC[C@@H](C3)N2C(=O)c2cc3cc([C@H]4CCOC(C)(C)C4)ccc3n2[C@@]2(c3noc(=O)[nH]3)C[C@@H]2C)cc(C)c1F [Compound 430, 3-((1S,2S)-1-(5-((S)-2,2-dimethyltetrahydro-2H-pyran-4-yl)-2-((4R,8S)-3-(3-(4-fluoro-1-methyl-1H-indazol-5-yl)-2-oxo-2,3-dihydro-1H-imidazol-1-yl)-2-(4-fluoro-3,5-dimethylphenyl)-4,5,6,7,8,9-hexahydro-2H-4,8-epiminocycloocta [c]pyrazole-10-carbonyl)-1H-indol-1-yl)-2-methylcyclopropyl)-1,2,4-oxadiazol-5 (4H)-one]",little or no potency
